#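 Compound exposure: 48 hours, 5 concentrations, 96-well plates. The concentration for 50% growth inhibition is given as GI50.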 The source made the active and inactive calls. Rule as the data show it: active = GI50 up to about 1.1 µM and inactive = higher.
# Columns and labels:
# Assay in all cases: NCI anticancer screen, dose series, 48 h
# SK-MEL-28 = system: SK-MEL-28
# PC-3 = system: PC-3
# UACC-62 = system: UACC-62
# CAKI-1 = system: CAKI-1
# 786-0 = system: 786-0
# EKVX = system: EKVX
# NCI-H23 = system: NCI-H23
# HOP-92 = system: HOP-92
# SW-620 = system: SW-620
# SR = system: SR
# Malme-3M = system: Malme-3M
# SNB-19 = system: SNB-19
# OVCAR-5 = system: OVCAR-5
# HCT-15 = system: HCT-15
# HT-29 = system: HT-29
# MOLT-4 = system: MOLT-4
# HOP-62 = system: HOP-62
# KM12 = system: KM12
# MDA-MB-231 = system: MDA-MB-231
# SK-MEL-2 = system: SK-MEL-2
# DU-145 = system: DU-145
# NCI-H522 = system: NCI-H522
# SN12C = system: SN12C
# UACC-257 = system: UACC-257
# COLO 205 = system: COLO 205
# NCI-H226 = system: NCI-H226
# CCRF-CEM = system: CCRF-CEM
# RXF 393 = system: RXF 393
# SK-MEL-5 = system: SK-MEL-5
# MDA-N = system: MDA-N
# MCF7 = system: MCF7
# OVCAR-3 = system: OVCAR-3
# A498 = system: A498
# SF-268 = system: SF-268
# SF-295 = system: SF-295
# ACHN = system: ACHN
# RPMI-8226 = system: RPMI-8226
# HCT-116 = system: HCT-116
# NCI-H460 = system: NCI-H460
# K562 = system: K562
# Hs-578T = system: Hs-578T
# OVCAR-4 = system: OVCAR-4
# OVCAR-8 = system: OVCAR-8
# T47D = system: T47D
# M14 = system: M14
# SF-539 = system: SF-539
# UO-31 = system: UO-31
# A549 = system: A549
# SK-OV-3 = system: SK-OV-3
# MDA-MB-435 = system: MDA-MB-435
# U-251 = system: U-251
# HL-60 = system: HL-60
# BT-549 = system: BT-549
# IGROV-1 = system: IGROV-1
# SNB-75 = system: SNB-75
# NCI/ADR-RES = system: NCI/ADR-RES
# HCC 2998 = system: HCC 2998
# LOX IMVI = system: LOX IMVI
# TK-10 = system: TK-10
smiles,measurement,setting,value
CCOC(=O)C(C)c1nc2cc(N3CCN(C)CC3)c(F)cc2[nH]c1=O (configuration not stated),GI50,SK-MEL-28,> 100 µM (inactive)
same,GI50,PC-3,> 100 µM (inactive)
same,GI50,UACC-62,> 100 µM (inactive)
same,GI50,CAKI-1,> 100 µM (inactive)
same,GI50,786-0,> 100 µM (inactive)
same,GI50,EKVX,> 100 µM (inactive)
same,GI50,NCI-H23,> 100 µM (inactive)
same,GI50,HOP-92,> 100 µM (inactive)
same,GI50,SW-620,> 100 µM (inactive)
same,GI50,SR,> 100 µM (inactive)
same,GI50,Malme-3M,28.9 µM (inactive)
same,GI50,SNB-19,> 100 µM (inactive)
same,GI50,OVCAR-5,> 100 µM (inactive)
same,GI50,HCT-15,> 100 µM
same,GI50,HT-29,> 100 µM (inactive)
same,GI50,MOLT-4,> 100 µM (inactive)
same,GI50,HOP-62,> 100 µM (inactive)
same,GI50,KM12,> 100 µM (inactive)
same,GI50,MDA-MB-231,> 100 µM (inactive)
same,GI50,SK-MEL-2,> 100 µM (inactive)
same,GI50,DU-145,> 100 µM (inactive)
same,GI50,NCI-H522,40.5 µM (inactive)
same,GI50,SN12C,> 100 µM (inactive)
same,GI50,UACC-257,> 100 µM (inactive)
same,GI50,COLO 205,> 100 µM (inactive)
same,GI50,NCI-H226,> 100 µM (inactive)
same,GI50,CCRF-CEM,> 100 µM (inactive)
same,GI50,RXF 393,> 100 µM (inactive)
same,GI50,SK-MEL-5,> 100 µM (inactive)
same,GI50,MDA-N,> 100 µM (inactive)
same,GI50,MCF7,> 100 µM (inactive)
same,GI50,OVCAR-3,> 100 µM (inactive)
same,GI50,A498,> 100 µM (inactive)
same,GI50,SF-268,> 100 µM (inactive)
same,GI50,SF-295,> 100 µM (inactive)
same,GI50,ACHN,> 100 µM (inactive)
same,GI50,RPMI-8226,> 100 µM (inactive)
same,GI50,HCT-116,> 100 µM (inactive)
same,GI50,NCI-H460,> 100 µM (inactive)
same,GI50,K562,> 100 µM (inactive)
same,GI50,Hs-578T,> 100 µM (inactive)
same,GI50,OVCAR-4,> 100 µM (inactive)
same,GI50,OVCAR-8,> 100 µM (inactive)
same,GI50,T47D,> 100 µM (inactive)
same,GI50,M14,> 100 µM (inactive)
same,GI50,SF-539,> 100 µM (inactive)
same,GI50,UO-31,> 100 µM (inactive)
same,GI50,A549,> 100 µM (inactive)
same,GI50,SK-OV-3,> 100 µM (inactive)
same,GI50,MDA-MB-435,> 100 µM (inactive)
same,GI50,U-251,> 100 µM (inactive)
same,GI50,HL-60,> 100 µM (inactive)
same,GI50,BT-549,> 100 µM (inactive)
same,GI50,IGROV-1,> 100 µM (inactive)
same,GI50,SNB-75,> 100 µM (inactive)
same,GI50,NCI/ADR-RES,> 100 µM (inactive)
CC1OC(OC2C(O)COC(OC3C(C)OC(OC4C(OC(=O)[C@]56CCC(C)(C)C[C@@H]5C5=CCC7[C@@]8(C)C[C@H](O)[C@H](OC9OC(CO)C(O)C(O)C9O)[C@@](C)(CO)[C@@H]8CC[C@@]7(C)[C@]5(C)CC6)OCC(O)C4O)C(O)C3O)C2O)C(O)C(O)C1O (some centres not stated),GI50,HCC 2998,18.5 µM (inactive)
same,GI50,SK-MEL-28,15 µM (inactive)
same,GI50,PC-3,18.2 µM (inactive)
same,GI50,UACC-62,20.8 µM (inactive)
same,GI50,CAKI-1,12.5 µM (inactive)
same,GI50,786-0,18.1 µM (inactive)
same,GI50,EKVX,16.5 µM (inactive)
same,GI50,NCI-H23,28.2 µM (inactive)
same,GI50,HOP-92,23.7 µM (inactive)
same,GI50,SW-620,20.1 µM (inactive)
same,GI50,SR,21 µM (inactive)
same,GI50,Malme-3M,33.4 µM (inactive)
same,GI50,SNB-19,21.8 µM (inactive)
same,GI50,OVCAR-5,17.1 µM (inactive)
same,GI50,LOX IMVI,21.3 µM (inactive)
same,GI50,HCT-15,20.9 µM
same,GI50,HT-29,21 µM (inactive)
same,GI50,MOLT-4,19 µM (inactive)
same,GI50,HOP-62,18.3 µM (inactive)
same,GI50,KM12,35.5 µM (inactive)
same,GI50,MDA-MB-231,19.8 µM (inactive)
same,GI50,DU-145,19.1 µM (inactive)
same,GI50,NCI-H522,46.6 µM (inactive)
same,GI50,SN12C,21.2 µM (inactive)
same,GI50,UACC-257,17.5 µM (inactive)
same,GI50,COLO 205,14.9 µM (inactive)
same,GI50,NCI-H226,25.1 µM (inactive)
same,GI50,CCRF-CEM,20.6 µM (inactive)
same,GI50,RXF 393,15.6 µM (inactive)
same,GI50,SK-MEL-5,20.4 µM (inactive)
same,GI50,MDA-N,20.5 µM (inactive)
same,GI50,MCF7,30.9 µM (inactive)
same,GI50,OVCAR-3,18.1 µM (inactive)
same,GI50,A498,19.5 µM (inactive)
same,GI50,SF-268,27.7 µM (inactive)
same,GI50,SF-295,23.9 µM (inactive)
same,GI50,ACHN,21.2 µM (inactive)
same,GI50,RPMI-8226,33.2 µM (inactive)
same,GI50,HCT-116,25.8 µM (inactive)
same,GI50,NCI-H460,20.5 µM (inactive)
same,GI50,K562,47.9 µM (inactive)
same,GI50,Hs-578T,32 µM (inactive)
same,GI50,OVCAR-4,20.8 µM (inactive)
same,GI50,OVCAR-8,18.8 µM (inactive)
same,GI50,T47D,22 µM (inactive)
same,GI50,M14,22.8 µM (inactive)
same,GI50,SF-539,22.2 µM (inactive)
same,GI50,UO-31,12.9 µM (inactive)
same,GI50,A549,20.8 µM (inactive)
same,GI50,SK-OV-3,19.8 µM (inactive)
same,GI50,MDA-MB-435,23.4 µM (inactive)
same,GI50,U-251,23.9 µM (inactive)
same,GI50,BT-549,24.1 µM (inactive)
same,GI50,SNB-75,20 µM (inactive)
same,GI50,NCI/ADR-RES,21.6 µM (inactive)
same,GI50,TK-10,17.1 µM (inactive)

# Reference: ChEMBL document CHEMBL1201862, “PubChem BioAssay data set” (2004)
